According to patent US20090062403A1, “Compositions and Methods for Treatment of Disorders of Protein Aggregation” (priority 2004, published 2009):

Experiments:
Aβ oligomers = settings: positive control, previously shown; cited from earlier work
Aβ = target: T1, Aβ (Homo sapiens, UniProt P05067); settings: reference [16]; cited from earlier work
T1 construct: neurotoxic oligomeric/protofibrillar aggregates of amyloid β-peptide (Aβ)

TgCRND8 mice = assay: Pilot in vivo studies; set-up: species or system mouse; settings: data not shown
Excerpt: The TgCRND8 mice and non-transgenic littermates were assigned to sex- and age-matched cohorts that were then used to test the effectiveness of the cyclohexanehexol stereoisomers as a therapeutic (with treatment delayed until five months of age and continued for one month until six months of age). […] The endpoints were cognitive function, brain Aβ levels, and neuropathology. […] Over the course of these experiments, observers were unaware of genotype or treatment group.

T1 sequence (P05067 672-713 limits assumed): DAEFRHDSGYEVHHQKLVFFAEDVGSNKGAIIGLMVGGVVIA

| Compound | production of oligomers when added pre-cond (Aβ oligomers) | effectiveness in prior in vitro studies (Aβ) | benefit in pilot in vivo studies (TgCRND8 mice) |
| --- | --- | --- | --- |
| Oc1cccc(Nc2ccc(Nc3cccc(O)c3)nn2)c1 [RS0406] | reduces the production of oligomers |  |  |
| O[C@H]1[C@H](O)[C@@H](O)[C@H](O)[C@@H](O)[C@H]1O [myo-cyclohexanehexol, 1,2,3,5/4,6-(myo-)cyclohexanehexol] |  | only weakly effective | no significant benefit |
